{"source": "DBAASP", "assay_in_all_cases": "≥ marks a high value that may be exact or a test limit, other limits are often not marked, values filed in µg/mL are converted to µM", "key": {"[1]": {"test_system": "Bacillus megaterium ATCC 10778"}, "[2]": {"test_system": "Bacillus subtilis ATCC 6633"}, "Candida albicans MDM8": {"test_system": "Candida albicans MDM8"}, "[3]": {"test_system": "Candida tropicalis IOC 4560"}, "[4]": {"test_system": "Enterobacter cloacae beta-12"}, "Escherichia coli SBS 363": {"test_system": "Escherichia coli SBS 363"}, "Micrococcus luteus A270": {"test_system": "Micrococcus luteus A270"}, "[5]": {"test_system": "Pseudomonas aeruginosa ATCC 27853"}, "[6]": {"test_system": "Serratia marcescens ATCC 4112"}, "[7]": {"test_system": "Staphylococcus aureus ATCC 29213"}, "Escherichia coli": {"test_system": "Escherichia coli"}, "Listeria innocua": {"test_system": "Listeria innocua"}, "[8]": {"test_system": "Salmonella enterica subsp. enterica serovar Enteritidis"}, "[9]": {"test_system": "Staphylococcus aureus SH1000"}, "[10]": {"test_system": "Bordetella bronchiseptica CUN 11844-99"}, "[11]": {"test_system": "Escherichia coli ATCC 25922"}, "[12]": {"test_system": "Pseudomonas aeruginosa CUN 4158-02"}, "[13]": {"test_system": "Staphylococcus aureus ATCC 25923"}, "[14]": {"test_system": "Acinetobacter baumannii ATCC 7978"}, "[15]": {"test_system": "Klebsiella pneumoniae WGLW2"}, "[16]": {"test_system": "Staphylococcus aureus ATCC 29231"}, "[17]": {"test_system": "Staphylococcus aureus MW2"}, "[18]": {"test_system": "Candida albicans ATCC 10231"}, "[19]": {"test_system": "Klebsiella aerogenes ATCC 13048"}, "[20]": {"test_system": "Pseudomonas aeruginosa H1001"}, "[21]": {"test_system": "Escherichia coli DH5alpha"}}, "data": [{"smiles": "CC(C)C[C@H](NC(=O)[C@H](C)NC(=O)CNC(=O)[C@H](CC(C)C)NC(=O)[C@@H](N)Cc1ccccc1)C(=O)N[C@@H](Cc1c[nH]c2ccccc12)C(=O)N[C@@H](CC(N)=O)C(=O)N[C@H](C(=O)N[C@@H](C)C(=O)N[C@@H](CCCCN)C(=O)N[C@@H](CO)C(=O)N[C@@H](Cc1ccc(O)cc1)C(=O)N[C@@H](Cc1ccccc1)C(N)=O)C(C)C", "note": "[FLGALWNVAKSYF]", "values": [{"measurement": "MIC", "setting": "[1]", "value": 3.1, "unit": "µM"}, {"measurement": "MIC", "setting": "[2]", "value": 1.6, "unit": "µM"}, {"measurement": "MIC", "setting": "Candida albicans MDM8", "value": "≥ 50", "unit": "µM"}, {"measurement": "MIC", "setting": "[3]", "value": 12.5, "unit": "µM"}, {"measurement": "MIC", "setting": "[4]", "value": "≥ 50", "unit": "µM"}, {"measurement": "MIC", "setting": "Escherichia coli SBS 363", "value": 6.3, "unit": "µM"}, {"measurement": "MIC", "setting": "Micrococcus luteus A270", "value": 0.8, "unit": "µM"}, {"measurement": "MIC", "setting": "[5]", "value": "> 50", "unit": "µM"}, {"measurement": "MIC", "setting": "[6]", "value": 0.4, "unit": "µM"}, {"measurement": "MIC", "setting": "[7]", "value": 3.1, "unit": "µM"}]}, {"smiles": "CC(C)C[C@H](NC(=O)[C@H](C)NC(=O)[C@H](CC(N)=O)NC(=O)[C@H](C)NC(=O)[C@@H](NC(=O)CNC(=O)[C@H](C)NC(=O)[C@@H](NC(=O)[C@@H](NC(=O)[C@H](CCCCN)NC(=O)[C@H](CCC(N)=O)NC(=O)[C@H](Cc1ccccc1)NC(=O)[C@H](CC(=O)O)NC(=O)[C@H](C)NC(=O)[C@H](CCC(N)=O)NC(=O)[C@H](CC(C)C)NC(=O)[C@@H](NC(=O)[C@@H]1CCCN1C(=O)[C@@H](NC(=O)[C@@H](N)Cc1ccccc1)[C@@H](C)O)C(C)C)C(C)C)C(C)C)C(C)C)C(=O)N[C@@H](C)C(=O)N[C@@H](Cc1cnc[nH]1)C(=O)N[C@@H](CCCN=C(N)N)C(=O)N[C@@H](Cc1ccc(O)cc1)C(=O)N[C@@H](Cc1cnc[nH]1)C(=O)O", "note": "[FTPVLQADFQKVVAGVANALAHRYH]", "values": [{"measurement": "MIC", "setting": "Escherichia coli", "value": 73, "unit": "µM"}, {"measurement": "MIC", "setting": "Listeria innocua", "value": "≥ 73", "unit": "µM"}, {"measurement": "MIC", "setting": "Micrococcus luteus A270", "value": "≥ 85", "unit": "µM"}, {"measurement": "MIC", "setting": "[8]", "value": "≥ 73", "unit": "µM"}]}, {"smiles": "CC(C)C[C@H](NC(=O)CN)C(=O)N[C@@H](Cc1ccccc1)C(=O)N[C@@H](CC(=O)O)C(=O)N[C@@H](CC(C)C)C(=O)N[C@@H](CC(C)C)C(=O)N[C@@H](CCCCN)C(=O)N[C@@H](CCCCN)C(=O)N[C@@H](CC(C)C)C(=O)N[C@@H](CC(C)C)C(=O)N[C@@H](CCCCN)C(=O)N[C@@H](CC(C)C)C(=O)N[C@@H](CC(C)C)C(=O)N[C@@H](CCCCN)C(N)=O", "note": "[GLFDLLKKLLKLLK]", "values": [{"measurement": "MIC", "setting": "[9]", "value": "≥ 100", "unit": "µM"}]}, {"smiles": "CC(C)C[C@H](NC(=O)CNC(=O)[C@H](CCCCN)NC(=O)[C@H](Cc1ccccc1)NC(=O)[C@H](CCCCN)NC(=O)[C@H](Cc1c[nH]c2ccccc12)NC(=O)[C@H](CCCN=C(N)N)NC(=O)[C@H](Cc1ccccc1)NC(=O)[C@H](CCCCN)NC(=O)[C@H](CCCCN)NC(=O)[C@H](Cc1ccc(O)cc1)NC(=O)[C@H](CCCN=C(N)N)NC(=O)[C@H](CCCN=C(N)N)NC(=O)CN)C(=O)N[C@@H](Cc1ccccc1)C(=O)N[C@@H](CC(C)C)C(=O)N[C@@H](Cc1ccccc1)C(=O)N[C@@H](CC(C)C)C(=O)NCC(N)=O", "note": "[GRRYKKFRWKFKGLFLFLG]", "values": [{"measurement": "MIC", "setting": "[10]", "value": 6.54, "unit": "µM"}, {"measurement": "MIC", "setting": "[11]", "value": 26.1, "unit": "µM"}, {"measurement": "MIC", "setting": "[12]", "value": 26.1, "unit": "µM"}, {"measurement": "MIC", "setting": "[13]", "value": 26.1, "unit": "µM"}]}, {"smiles": "CC[C@H](C)[C@H](NC(=O)[C@H](Cc1c[nH]c2ccccc12)NC(=O)[C@H](CCCCN)NC(=O)[C@@H](N)CC(C)C)C(=O)NCC(=O)N[C@@H](CCCCN)C(=O)N[C@@H](Cc1c[nH]c2ccccc12)C(=O)N[C@H](C(=O)N[C@@H](Cc1c[nH]c2ccccc12)C(=O)N[C@@H](CCCN=C(N)N)C(=O)N[C@H](C(=O)NCC(=O)O)C(C)C)[C@@H](C)CC", "note": "[LKWIGKWIWRVG]", "values": [{"measurement": "MIC", "setting": "[14]", "value": "≥ 83", "unit": "µM"}, {"measurement": "MIC", "setting": "[15]", "value": "≥ 83", "unit": "µM"}, {"measurement": "MIC", "setting": "[16]", "value": "≥ 83", "unit": "µM"}, {"measurement": "MIC", "setting": "[17]", "value": "≥ 41.5", "unit": "µM"}]}, {"smiles": "CC[C@H](C)[C@H](NC(=O)[C@H](CCCCN)NC(=O)[C@H](Cc1c[nH]c2ccccc12)NC(=O)[C@@H](N)CC(C)C)C(=O)NCC(=O)N[C@@H](Cc1c[nH]c2ccccc12)C(=O)N[C@@H](CCCCN)C(=O)N[C@H](C(=O)N[C@@H](Cc1c[nH]c2ccccc12)C(=O)N[C@@H](CCCN=C(N)N)C(=O)N[C@H](C(=O)NCC(=O)N[C@@H](Cc1c[nH]c2ccccc12)C(=O)N[C@@H](CC(N)=O)C(=O)N[C@@H](Cc1c[nH]c2ccccc12)C(=O)N[C@@H](CCCN=C(N)N)C(=O)O)C(C)C)[C@@H](C)CC", "note": "[LWKIGWKIWRVGWNWR]", "values": [{"measurement": "MIC", "setting": "[14]", "value": 14.7, "unit": "µM"}, {"measurement": "MIC", "setting": "[18]", "value": 29.3, "unit": "µM"}, {"measurement": "MIC", "setting": "[19]", "value": "≥ 58.6", "unit": "µM"}, {"measurement": "MIC", "setting": "[16]", "value": 14.7, "unit": "µM"}, {"measurement": "MIC", "setting": "[17]", "value": 14.7, "unit": "µM"}]}, {"smiles": "CC[C@H](C)[C@H](NC(=O)[C@H](C)NC(=O)[C@H](CC(N)=O)NC(=O)[C@H](CCSC)NC(=O)[C@@H]1CCCN1)C(=O)N[C@@H](CCCCN)C(=O)N[C@@H](CC(C)C)C(=O)N[C@@H](CC(C)C)C(=O)N[C@@H](CS)C(=O)N[C@@H](CCCN=C(N)N)C(=O)O", "note": "[PMNAIKLLCR]", "values": [{"measurement": "MIC", "setting": "[20]", "value": "≥ 173", "unit": "µM"}]}, {"smiles": "CC[C@H](C)[C@H](NC(=O)[C@H](CCCN=C(N)N)NC(=O)[C@H](CCCCN)NC(=O)[C@@H]1CCCN1C(=O)[C@@H]1CCCN1C(=O)[C@H](CCCN=C(N)N)NC(=O)[C@@H]1CCCN1C(=O)[C@H](CCCN=C(N)N)NC(=O)[C@@H]1CCCN1C(=O)[C@H](CC(C)C)NC(=O)[C@H](Cc1ccc(O)cc1)NC(=O)[C@@H]1CCCN1C(=O)[C@@H]1CCCN1C(=O)[C@H](CCCCN)NC(=O)[C@H](CC(=O)O)NC(=O)[C@@H](N)C(C)C)C(=O)N[C@@H](Cc1ccc(O)cc1)C(=O)N[C@@H](CC(N)=O)C(=O)N[C@@H](CCCN=C(N)N)C(=O)NCC(=O)O", "note": "[VDKPPYLPRPRPPKRIYNRG]", "values": [{"measurement": "MIC", "setting": "[20]", "value": 0.112, "unit": "µM"}]}, {"smiles": "CC[C@H](C)[C@H](NC(=O)[C@H](CCCN=C(N)N)NC(=O)[C@H](CCCN=C(N)N)NC(=O)[C@H](CCCN=C(N)N)NC(=O)[C@@H]1CCCN1C(=O)[C@H](CCCN=C(N)N)NC(=O)[C@@H]1CCCN1C(=O)[C@H](CCCN=C(N)N)NC(=O)[C@@H]1CCCN1C(=O)[C@H](CC(C)C)NC(=O)[C@H](Cc1ccc(O)cc1)NC(=O)[C@@H]1CCCN1C(=O)[C@@H]1CCCN1C(=O)[C@H](CCCCN)NC(=O)[C@H](CC(=O)O)NC(=O)[C@@H](N)C(C)C)C(=O)N[C@@H](Cc1ccc(O)cc1)C(=O)N[C@@H](CC(N)=O)C(=O)N[C@@H](CCCN=C(N)N)C(=O)NCC(=O)O", "note": "[VDKPPYLPRPRPRRRIYNRG]", "values": [{"measurement": "MIC", "setting": "[20]", "value": 0.12, "unit": "µM"}]}, {"smiles": "CC[C@H](C)[C@H](NC(=O)[C@H](C)NC(=O)[C@H](CCCCN)NC(=O)[C@@H](NC(=O)[C@H](CC(C)C)NC(=O)[C@H](CCCCN)NC(=O)[C@H](CCCCN)NC(=O)[C@@H](NC(=O)CNC(=O)[C@H](C)NC(=O)[C@H](Cc1ccccc1)NC(=O)[C@H](Cc1ccccc1)NC(=O)[C@H](CCCCN)NC(=O)CNC(=O)[C@@H](N)Cc1c[nH]c2ccccc12)C(C)C)[C@@H](C)O)C(=O)N[C@@H](CC(C)C)C(=O)N[C@@H](C)C(=O)N[C@H](C(=O)N[C@@H](CCCN=C(N)N)C(=O)N[C@@H](C)C(N)=O)C(C)C", "note": "[WGKFFAGVKKLTKAILAVRA]", "values": [{"measurement": "MIC", "setting": "[21]", "value": 10, "unit": "µM"}, {"measurement": "MIC", "setting": "[9]", "value": 3.16, "unit": "µM"}]}, {"smiles": "CC[C@H](C)[C@H](NC(=O)[C@H](C)NC(=O)[C@H](CCCCN)NC(=O)[C@@H](NC(=O)[C@H](CC(C)C)NC(=O)[C@H](CCCCN)NC(=O)[C@H](CCCCN)NC(=O)[C@@H](NC(=O)CNC(=O)[C@H](C)NC(=O)[C@H](Cc1ccccc1)NC(=O)[C@H](Cc1ccccc1)NC(=O)[C@H](CCCCN)NC(=O)CNC(=O)[C@@H](N)Cc1c[nH]c2ccccc12)C(C)C)[C@@H](C)O)C(=O)N[C@@H](CC(C)C)C(=O)NCC(=O)N[C@@H](CCC(=O)O)C(=O)N[C@H](C(=O)N[C@@H](C)C(N)=O)[C@@H](C)CC", "note": "[WGKFFAGVKKLTKAILGEIA]", "values": [{"measurement": "MIC", "setting": "[21]", "value": 3.16, "unit": "µM"}, {"measurement": "MIC", "setting": "[9]", "value": 3.16, "unit": "µM"}]}]}
